Laboratory results as given in patent US12508216B2, “Process for the preparation of antimalassezia powder” (PRAJ INDUSTRIES LIMITED, priority 2022, dated 2025).
Values after ≈ are worked out from the molar mass of the structure shown. “Also recorded” adds a separate entry of the source. Where two headings read alike, the source gives them in different places.

Experiments:
[1] = system: Malassezia indicator strains; experiment: Agar plate diffusion assay, antifungal activity in words; type: cell-based; conditions: against Malassezia, compared among fractions 1-7
Protocol: (§1) said first extract is analyzed for antifungal activity using agar plate diffusion assay and by time kill procedure. […] For time-kill procedure, the inoculum suspension of indicator strains of Malassezia (10^5 CFU/mL) is exposed to different concentration of First extract. Then, 50-μL aliquots is withdrawn at fixed intervals and evaluated. […] Said first extract is used further for down streaming to separate the antifungal peptides.
About 15 ml fraction which was obtained after anion exchange chromatography was lyophilized to get about 1500 mg of dry powder. About 50 mg was mixed with 1 ml sodium phosphate buffer and then said solution was injected to Scalar C18 column. The separation of the antifungal peptides was carried out by binary solvent gradient elution system comprising about 0.1% trifluoroacetic acid in HPLC grade deionized water (eluent A) and about 0.1% trifluoroacetic acid in acetonitrile (eluent B). The gradient program was as follows between: 0 to 20 min, 0-40% B, 20-30 min, 40 to 80% B, 30 to 35 min, 80 to 100% B, 35 to 45 min, 100 to 0% B at a flow rate of about 1.0 mL/min at 30° C., Six separate fractions were collected at retention times of 24.5, 28.2, 30.1, 32.2, 34.5 and 37.1 minutes and seventh fraction was collected from 38 to 43 minutes according to the absorption profile at 220 nm and 280 nm using the fraction collector and further freeze-dried. […]

M. globosa [2] = experiment: Agar plate diffusion assay, zone of inhibition; type: cell-based, Malassezia globosa
Protocol: as §1
(§2) About 15 ml fraction which was obtained after anion exchange chromatography was lyophilized to get about 1500 mg of dry powder. About 50 mg was mixed with 1 ml sodium phosphate buffer and then said solution was injected to Scalar C18 column. The separation of the antifungal peptides was carried out by binary solvent gradient elution system comprising about 0.1% trifluoroacetic acid in HPLC grade deionized water (eluent A) and about 0.1% trifluoroacetic acid in acetonitrile (eluent B). The gradient program was as follows between: 0 to 20 min, 0-40% B, 20-30 min, 40 to 80% B, 30 to 35 min, 80 to 100% B, 35 to 45 min, 100 to 0% B at a flow rate of about 1.0 mL/min at 30° C., Six separate fractions were collected at retention times of 24.5, 28.2, 30.1, 32.2, 34.5 and 37.1 minutes and seventh fraction was collected from 38 to 43 minutes according to the absorption profile at 220 nm and 280 nm using the fraction collector and further freeze-dried. Individual fractions were labelled as 1, 2, 3, 4, 5, 6 and 7 in the order if increasing retention times, dissolved in sterile distilled water and then tested for their individual antifungal activity. […] And fraction 5 was not reported against M. furfur, M. globose species. For experiment the 0.1 M sodium phosphate buffer was used as a negative control and Ketoconazol was used as a positive control

M. globosa [3] = experiment: MIC and MFC by broth microdilution technique; type: cell-based, Malassezia globosa; conditions: for MFC: first figure of MFC/MIC cell; for MIC: second figure of MFC/MIC cell
Protocol: (§3) The MIC of first extract and individual fractions (1-7) which were collected from RP-HPLC was calculated by ‘broth microdilution technique’ in 96-well microtiter plates. […] As a positive control, commercially used antifungal drug ketoconazole was used in concentrations ranging from 32 μg/mL to 0.0156 μg/mL. The plates were incubated at 30° C. for Malassezia spp and the results were recorded after 48 h and 7 days. The minimum inhibitory concentration (MIC) was measured as the lowest sample concentration that could inhibit the fungal growth.

M. furfur [4] = experiment: MIC and MFC by broth microdilution technique; type: cell-based, Malassezia furfur; conditions: for MFC: first figure of MFC/MIC cell; for MIC: second figure of MFC/MIC cell
Protocol: as §3

M. furfur [5] = experiment: Agar plate diffusion assay, zone of inhibition; type: cell-based, Malassezia furfur
Protocol: as §1, §2

Row | Compound | antifungal activity of individual fractions in words [1] | Zone of inhibition (M. globosa [2]) | MFC (M. globosa [3]) | MIC (M. globosa [3]) | MFC (M. furfur [4]; M. furfur) | MIC (M. furfur [4]; M. furfur) | MFC (M. furfur [4]; first M. furfur column) | MIC (M. furfur [4]; first M. furfur column) | Zone of inhibition (M. furfur [5]) | MFC (M. globosa [3]; Malassezia globosa, read-out: MFC) | MIC (M. globosa [3]; Malassezia globosa, read-out: MIC) | MFC (M. furfur [4]; Malassezia furfur, first M. furfur column, read-out: MFC) | MIC (M. furfur [4]; Malassezia furfur, first M. furfur column, read-out: MIC)
1 | C[C@@H]1CCC/C=C/C=C/[C@H](O)C[C@@H](O)C/C=C\C=C\[C@@H](O)C/C=C/C=C\C(=O)O1 [Fraction 5, Macrolactin A] | strongest anti-fungal activity | 2 ± 0.69 mm | 275 µg/mL (≈ 683 µM) | 138 µg/mL (≈ 343 µM) | 330 µg/mL (≈ 820 µM) | 165 µg/mL (≈ 410 µM) | 313 µg/mL (≈ 778 µM) | 156 µg/mL (≈ 388 µM) | 2 ± 0.77 mm | – | – | – | –
2 | CC1CCCC=CC=CC(O)CC(O)CC=CC=CC(OC(=O)CCC(=O)O)CC=CC=CC(=O)O1 (stereo not drawn) [Fraction 6, 7-O-succinylmacrolactin A] | strongest anti-fungal activity; also recorded: strongest antifungal activity | 7 ± 0.65 mm | 96 µg/mL (≈ 191 µM) | 48 µg/mL (≈ 95.5 µM) | 96 µg/mL (≈ 191 µM) | 48 µg/mL (≈ 95.5 µM) | 96 µg/mL (≈ 191 µM) | 48 µg/mL (≈ 95.5 µM) | 6 ± 0.7 mm | – | – | – | –
3 | CC(=O)N1CCN(c2ccc(OCC3COC(Cn4ccnc4)(c4ccc(Cl)cc4Cl)O3)cc2)CC1 (stereo not drawn) [Ketoconazole, reference compound] | – | 11 ± 0.64 mm | – | – | 0.1 µg/mL (≈ 0.188 µM) | 0.03 µg/mL (≈ 0.0565 µM) | – | – | 12 ± 0.65 mm | 0.08 µg/mL (≈ 0.151 µM) | 0.03 µg/mL (≈ 0.0565 µM) | 0.1 µg/mL (≈ 0.188 µM) | 0.03 µg/mL (≈ 0.0565 µM)
4 | C14 Bacillomycin D [Fraction 2] | – | 2 ± 0.42 mm | >228 µg/mL | >228 µg/mL | >228 µg/mL | >228 µg/mL | >228 µg/mL | >228 µg/mL | 2 ± 0.45 mm | – | – | – | –
5 | C15 Bacillomycin D [Fraction 3] | – | 2 ± 0.25 mm | >228 µg/mL | >228 µg/mL | >228 µg/mL | >228 µg/mL | >228 µg/mL | >228 µg/mL | 3 ± 0.26 mm | – | – | – | –
6 | C16 Bacillomycin D [Fraction 4] | – | – | >228 µg/mL | >228 µg/mL | >228 µg/mL | >228 µg/mL | >228 µg/mL | >228 µg/mL | – | – | – | – | –
